Laboratory results: patent US6177253A, “Screening methods for the identification of anti-HIV compounds employing a cyclosporine-specific monoclonal antibody that cross-reacts with HIV-1 p24” (priority 1998, dated 2001)

Key:
Type in all cases: binding, BALB/c mice
G7 1.1 = assay: ELISA inhibition by singly modified Cs-derivatives, McAb G7 1.1; conditions: group I; McAb binds selectively to Thr^2 -Cs-BSA coating
Procedure: (§1) A second ELISA Procedure used conjugates of D-Lys^8 -Cs-BSA and Thr^2 -Cs-BSA for coating (Queeniaux et al., 1987b). An indirect detection system consisting of rabbit anti-mouse Ig followed by alkaline phosphates-conjugated goat anti-rabbit IgG was performed as previously described (Queenlaux et al., 1987b).
(§2) The binding of the 22 McAbs to these two Cs-BSA conjugates was also found to correlate well with their fine specificity patterns, as characterized with a set of 28-36 Cs derivatives. Typical ELISA curves showing McAb binding either to D-Lys^8 -Cs-BSA (panel A) or to Thr^2 -Ca-BSA (panel B) and inhibited by Cs or Cs derivatives are shown in FIGS. 8A-8B, D-Lys^8 -Cs-BSA was subsequently used for coating in the inhibition experiments, except for those McAbs binding selectively to Thr^2 -Cs-BSA (see Table 4 and FIGS. 7A-7C). An example of the binding of 26 Cs derivatives by McAbs belonging to each of the five specificity groups mentioned above is reported in Table 5. The results are expressed as the difference of IC50 (in log10) between the Cs derivatives and Cs. All Cs-derivatives used in this study were selected for having a conserved peptide ring conformation compared with CsA (as determined in NMR or X-ray diffraction).

H4 1.3 = assay: ELISA inhibition by singly modified Cs-derivatives, McAb H4 1.3; conditions: group II; D-Lys^8 -Cs-BSA coating
Procedure: as §1, §2

H6 1.5 = assay: ELISA inhibition by singly modified Cs-derivatives, McAb H6 1.5; conditions: group III; D-Lys^8 -Cs-BSA coating
Procedure: as §1, §2

B11 1.4 = assay: ELISA inhibition by singly modified Cs-derivatives, McAb B11 1.4; conditions: group IV; D-Lys^8 -Cs-BSA coating
Procedure: as §1, §2

C4 2.2 = assay: ELISA inhibition by singly modified Cs-derivatives, McAb C4 2.2; conditions: group V; McAb binds selectively to Thr^2 -Cs-BSA coating
Procedure: as §1, §2

| Structure (SMILES) | log10 difference in the concentrations of Cs-derivatives and unmodified Cs required to achieve 50% inhibition in ELISA, McAb G7 1.1 (G7 1.1) | log10 difference in the concentrations of Cs-derivatives and unmodified Cs required to achieve 50% inhibition in ELISA, McAb H4 1.3 (H4 1.3) | log10 difference in the concentrations of Cs-derivatives and unmodified Cs required to achieve 50% inhibition in ELISA, McAb H6 1.5 (H6 1.5) | log10 difference in the concentrations of Cs-derivatives and unmodified Cs required to achieve 50% inhibition in ELISA, McAb B11 1.4 (B11 1.4) | log10 difference in the concentrations of Cs-derivatives and unmodified Cs required to achieve 50% inhibition in ELISA, McAb C4 2.2 (C4 2.2) |
| --- | --- | --- | --- | --- | --- |
| C/C=C/C[C@@H](C)[C@@H](O)[C@H]1C(=O)N[C@@H](CC)C(=O)N(C)[C@H](C)C(=O)N(C)[C@@H](CC(C)C)C(=O)N[C@@H](C(C)C)C(=O)N(C)[C@@H](CC(C)C)C(=O)N[C@@H](C)C(=O)N[C@H](C)C(=O)N(C)[C@@H](CC(C)C)C(=O)N(C)[C@@H](CC(C)C)C(=O)N(C)[C@@H](C(C)C)C(=O)N1C [Sar^3 D-MeAla] | 1.2 log10 | 1.3 log10 | 1.4 log10 | < 0.0 log10 | 1.2 log10 |
| C/C=C/C[C@@H](C)[C@@H](O)[C@H]1C(=O)N[C@@H](CC)C(=O)N(C)CC(=O)N(C)[C@@H](CC(C)C)C(=O)N[C@@H](C(C)C)C(=O)N(C)[C@@H](CC(C)C)C(=O)N[C@@H](C)C(=O)N[C@H](C)C(=O)N(C)[C@@H](CC(C)C)C(=O)N(C)[C@@H](Cc2ccccc2)C(=O)N(C)[C@@H](C(C)C)C(=O)N1C [MeAla^10 MePhe] | < 0.0 log10 | 0.5 log10 | 0.2 log10 | 1.6 log10 | 1.3 log10 |
| C/C=C/C[C@@H](C)[C@@H](O)[C@H]1C(=O)N[C@@H](CC)C(=O)N(C)CC(=O)N(C)[C@@H](CC(C)C)C(=O)N[C@@H](C(C)C)C(=O)N(C)[C@@H](CC(C)C)C(=O)N[C@@H](C)C(=O)N[C@H](C)C(=O)N(C)[C@@H](CC(C)C)C(=O)N(C)[C@@H](CC(C)C)C(=O)N(C)[C@@H]([C@H](C)CC)C(=O)N1C [MeVal^11 aMeIle] | 0.0 log10 | 0.3 log10 | 0.3 log10 | < 0.0 log10 | 0.0 log10 |
| CC[C@@H]1NC(=O)[C@H]([C@H](O)[C@H](C)C/C=C/CO)N(C)C(=O)[C@H](C(C)C)N(C)C(=O)[C@H](CC(C)C)N(C)C(=O)[C@H](CC(C)C)N(C)C(=O)[C@@H](C)NC(=O)[C@H](C)NC(=O)[C@H](CC(C)C)N(C)C(=O)[C@H](C(C)C)NC(=O)[C@H](CC(C)C)N(C)C(=O)CN(C)C1=O [MeBint^1 8'-hydroxy] | 0.0 log10 | < 0.0 log10 | < 0.0 log10 | < 0.0 log10 | 0.0 log10 |
| C/C=C/C[C@@H](C)[C@@H](O)[C@H]1C(=O)N[C@@H](CC)C(=O)N(C)CC(=O)N(C)[C@@H](CC(C)C)C(=O)N[C@@H](C(C)C)C(=O)N(C)[C@@H](C)C(=O)N[C@@H](C)C(=O)N[C@H](C)C(=O)N(C)[C@@H](CC(C)C)C(=O)N(C)[C@@H](CC(C)C)C(=O)N(C)[C@@H](C(C)C)C(=O)N1C [MeLeu^6 McAla] | 0.7 log10 | 0.9 log10 | 2.7 log10 | 0.0 log10 | 1.2 log10 |
| C/C=C/C[C@@H](C)[C@@H](O)[C@H]1C(=O)N[C@@H]([C@H](C)O)C(=O)N(C)CC(=O)N(C)[C@@H](CC(C)C)C(=O)N[C@@H](C(C)C)C(=O)N(C)[C@@H](CC(C)C)C(=O)N[C@@H](C)C(=O)N[C@H](C)C(=O)N(C)[C@@H](CC(C)C)C(=O)N(C)[C@@H](CC(C)C)C(=O)N(C)[C@@H](C(C)C)C(=O)N1C [Abu^2 aThr] | < 0.0 log10 | 1.5 log10 | 1.1 log10 | 0.0 log10 | 0.3 log10 |
| C/C=C/C[C@@H](C)[C@@H](O)[C@H]1C(=O)N[C@@H](CC)C(=O)N(C)CC(=O)N(C)[C@@H](CC(C)C)C(=O)N[C@@H](C(C)C)C(=O)N(C)[C@@H](CC(C)C)C(=O)N[C@@H](C)C(=O)N[C@H](C)C(=O)N(C)[C@@H](CC(C)C)C(=O)N(C)[C@@H](CC(C)C)C(=O)N(C)[C@@H]([C@@H](C)CC)C(=O)N1C [MeVal^11 MeIle] | 0.4 log10 | 0.0 log10 | 0.0 log10 | 0.2 log10 | 0.3 log10 |
| C/C=C/C[C@@H](C)[C@@H](O)[C@H]1C(=O)N[C@@H](CC)C(=O)N(C)CC(=O)N(C)[C@@H](CC(C)C)C(=O)N[C@@H](C(C)C)C(=O)N(C)[C@@H](Cc2ccccc2)C(=O)N[C@@H](C)C(=O)N[C@H](C)C(=O)N(C)[C@@H](CC(C)C)C(=O)N(C)[C@@H](CC(C)C)C(=O)N(C)[C@@H](C(C)C)C(=O)N1C [MeLeu^6 MePhe] | 0.1 log10 | 1.2 log10 | 1.7 log10 | 0.0 log10 | 1.3 log10 |
| C/C=C/C[C@@H](C)[C@@H](O)[C@H]1C(=O)N[C@@H](CC)C(=O)N(C)CC(=O)N(C)[C@@H](CC(C)C)C(=O)N[C@@H](C(C)C)C(=O)N(C)[C@@H](CC(C)C)C(=O)N[C@@H](CC)C(=O)N[C@H](C)C(=O)N(C)[C@@H](CC(C)C)C(=O)N(C)[C@@H](CC(C)C)C(=O)N(C)[C@@H](C(C)C)C(=O)N1C [Ala^7 Abu] | < 0.0 log10 | 0.0 log10 | 0.0 log10 | 0.0 log10 | < 0.0 log10 |
